The values below come from patent US4558066A, “Treatment and prevention of ocular hypertension” (priority 1984, dated 1985).

One series relates to eye. Details: species or system mongrel dogs. To be noted: dog, in vivo.
Another series relates to norepinephrine responses. Further details: species or system mongrel dogs. To be noted: dog, in vivo. As to the method: (§1) In the present studies, the cardiovascular and intraocular pressure effects of Timoptic (Timolol) a Merck β-blocker marketed for treatment of glaucoma, and ±2-[(3,4-methylenedioxy)phenethyl]-5-[(3-carboxamido-4-hydroxy)-α-hydroxybenzyl]pyrrolidine were evaluated in anesthetized dogs to determine if the compounds exert systemic effects after ocular administration.
(§2) Mongrel dogs were anesthetized with sodium pentobarbital (36 mg/kg, i.v.). The trachea was intubated and the dog respired with room air if necessary (20 cc/kg, 16x/min). A femoral vein was cannulated for injection of drugs and a femoral artery for measurement of systolic blood pressure. Heart rate was recorded by a cardiotachometer triggered by the R-wave of a limb lead II ECG. Intraocular pressure measurements were made with a Digilab model 30-D Pneuma-Tonometer.
(§3) Timolol and ±2-[(3,4-methylenedioxy)phenethyl]-5-[(3-carboxamido-4-hydroxy)-α-hydroxybenzyl]pyrrolidine were dissolved in distilled water. Isoproterenol and norepinephrine were dissolved in normal saline.
(§4) Isoproterenol was administered i.v. at half-log interval doses from 0.0158 μg/kg to 0.5 μg/kg.

For the next series, the system named is isoproterenol responses. Further details: species or system mongrel dogs. To be noted: dog, in vivo. As to the method:
as §1, §2, §3, §4

On the set-up of series [1]: species or system mongrel dogs. The note with it: dog, in vivo. As to the method:
as §1, §2, §3, §4

Series [2] concerns intraocular pressure. The series is described as follows: Intraocular pressure in anesthetized dogs after ocular administration. Format: in vivo, mongrel dogs. The note with it: anesthetized dog. As to the method: as §1, §2, §3, §4
Series [3] deals with intraocular pressure. Description: Reduction of intraocular pressure in rabbits (pneuma-tonometer). The class given is in vivo, normal albino white New Zealand rabbits. The note with it: rabbit. The method, then:
Two groups of normal albino white New Zealand rabbits were used for this study.
Experimental group: 8 animals
At time 0, intraocular pressure of both eyes of each animal in control and experimental groups was determined.
All animals received the treatment either with saline (control group) or the tested compound (experimental group) immediately after 0 hour intraocular pressure reading. Control group received 50 μl of vehicle in both eyes. Experimental animals received 50 μl of vehicle in the left eyes and 50 μl of 1% solution of tested compound in the right eyes.
Intraocular pressure was measured at 30 minutes, 1, 2, and 4 hours.
The effects of tested drug on intraocular pressure of the rabbit was determined using a Digilab Model 30D pneuma-tonometer. Initial IOP readings were obtained in all animals after the administration of 50 μl of 0.5% Opthaine (proparacaine hydrochloride). A group of 4 rabbits served as controls and were treated with 50 μl of saline in both eyes. Eight additional rabbits received 50 μl of test drug in the right eye, and 50 μl of drug vehicle was administered in the contralateral left eye. IOP readings were made 30 minutes, 1 hours, 2 hours, and 4 hours after drug administration.
This procedure permitted the comparison of drug treated eye with the contralateral vehicle treated eye, and also with saline treated eye. For purposes of statistical analysis comparisons were made between the drug treated IOP values and vehicle treated contralateral eyes and also the saline treated IOP values.

The conditions of series [4]: cited from earlier work.
The conditions of series [5]: topical; PDR; cited from earlier work.
[6] abbreviates: administered to the eye at 0.5, 1 and 2%.

Counter-ions that a name gives are not always drawn.

In the case of `NC(=O)c1cc(C(O)C2CCC(CCc3ccc4c(c3)OCO4)N2)ccc1O` (racemic) [±2-[(3,4-methylenedioxy)phenethyl]-5-[(3-carboxamido-4-hydroxy)-α-hydroxybenzyl]pyrrolidine], in the series with eye, the Eye irritation entry is reported as “no irritation to the eye”. In the series on norepinephrine responses, the “Dose relation of inhibition of norepinephrine responses” value is listed as “not dose related” and the “Inhibition of norepinephrine responses” value is given as “some inhibition”. In addition, in the series on isoproterenol responses, the “Dose relation of inhibition of isoproterenol responses” value is “not dose related” and the “Inhibition of isoproterenol responses” value is on record as “some inhibition”. In addition, in series [1], the “Baseline blood pressure compared with control dogs” value is “differed little from control dogs”; the “Baseline heart rate compared with control dogs” value is recorded as “differed little from control dogs”; the “Systemic effect (conclusion)” value is given as “modest, if any systemic effect”. Also, in the series on intraocular pressure [2] (setting [6]), the “Decrease of IOP relative to Timolol” value is recorded as “to a lesser extent than Timolol” and the “Effect on intraocular pressure” value is listed as “decreased IOP”. Also, the “Effect on intraocular pressure (conclusion)” value in the series with intraocular pressure [2] (at the doses tested) is “lowered intraocular pressure”. Also, the “Intraocular pressure, Experimental O.D. (right, treated eye)” value with intraocular pressure [3] (0 time reading before dosing of 50 μl of 1% solution (baseline), control O.D. 18.8, contralateral vehicle eye 18) is recorded as 17.6 mmHg. For the same molecule, the “Effect on intraocular pressure in right (treated) eyes” value in the series on intraocular pressure [3] (1% solution) is “decreased significantly intraocular pressure”. Further, the “Intraocular pressure, Experimental O.D. (right, treated eye)” value in the series with intraocular pressure [3] (50 μl of 1% solution, 30 min, control O.D. 18.3, contralateral vehicle eye 18.1) was determined as 18.9 mmHg. In addition, in the series with intraocular pressure [3] (50 μl of 1% solution, 1 hour, control O.D. 19.5, contralateral vehicle eye 19.8), the “Intraocular pressure, Experimental O.D. (right, treated eye)” value was 17.1 mmHg. In the series with intraocular pressure [3] (50 μl of 1% solution, 2 hours, control O.D. 19.8, contralateral vehicle eye 17.3), the “Intraocular pressure, Experimental O.D. (right, treated eye)” value amounted to 14.4 mmHg. In addition, the “Intraocular pressure, Experimental O.D. (right, treated eye)” value in the series with intraocular pressure [3] (50 μl of 1% solution, 4 hours, control O.D. 19.8, contralateral vehicle eye 18.8) was determined as 15.5 mmHg.
For the molecule `CC(C)(C)NC[C@H](O)COc1nsnc1N1CCOCC1` [Timolol], in the series on isoproterenol responses, the “Inhibition of i.v. (systemic) isoproterenol challenges” value is on record as “markedly inhibited” and the “Systemic absorption following ocular administration (indicated by inhibition of isoproterenol challenges)” value was “readily absorbed systemically following ocular administration”. In series [1], the “Effect on baseline blood pressure” value is given as “marked decreases”, the “Effect on baseline heart rate” value is recorded as “marked decreases”, the “Time post-dose to nadir of blood pressure” value is at most 90 min and the “Time post-dose to nadir of heart rate” value is at most 90 min. Further, in the series on intraocular pressure [2] (administered to the eye at 0.5%), the “Effect on intraocular pressure” value is given as “significant decreases in intraocular pressure”. Moreover, the “Effect on cardiac failure” value in series [4] (congestive heart failure patients, ocular application) was “intensify cardiac failure in congestive heart failure patients”. In addition, the “Systemic absorption after ocular application” value in series [4] (human, in vivo) was “absorbed systemically after ocular application”. Also, the Effect on bronchospasm result in series [4] (patients suffering from brochospastic disorders, ocular application) is given as “brochospasm in patients suffering from brochospastic disorders”.
For the molecule `CC(C)(C)NC[C@H](O)COc1nsnc1N1CCOCC1` [timolol maleate], the “Systemic side effects when applied topically” value in series [5] is listed as “can cause bronchospastic disease, bradyarrhythmia, cardiogenic shock, cardiac failure, etc”.
